The values below come from PMC11459959, “Discovery of new acetamide derivatives of 5-indole-1,3,4-oxadiazol-2-thiol as inhibitors of HIV-1 Tat-mediated viral transcription” (Antimicrobial Agents and Chemotherapy, 2024).

For series [1], the system named is HIV-1NL4-3. As to the kind of experiment: Time-of-addition assay in TZM-bl cells. As to conditions: HIV-1NL4-3 MOI 1, 9 and 13 1.5 μM, T-20 1 µM, triptolide 5 nM, ARVs 1 µM, F-Luc at 54 h. It counts as cell-based.
Series [2] in a line: Cell viability of PBMCs. The class given is cell-based. As to conditions: human. As to the method: The p24 level from the cell supernatant was subsequently determined using a p24 […] kit (PerkinElmer). In parallel, the cell viability was determined without viral infection because of the viral cytopathic effect. […] In parallel, cell viability was determined. The data (A and B) are presented as the mean ± SD (n = 3). (C) PBMCs (4 × 10^5) infected with HIV-AD8 at an MOI of 0.1 were treated with 1.5 µM of the compounds or ARVs for 3 days. The levels of p24 and cell viability were subsequently determined. (D) J1.1 cells were cultured with the compounds ([…]) under 50 ng/mL phorbol myristate acetate (PMA) treatment for 2 days. The level of p24 was subsequently determined. (E) J-Lat 6.3 cells were treated with the compounds (1.5 µM) under 1 µg/mL of PMA for 2 days. The GFP-positive cell population was analyzed using flow cytometry. The data are represented as a value relative to the DMSO-treated vehicle (D) and a percent of the GFP^+ cell population (E) as mean ± SD (n = 3).
The inhibitory effects of the compounds on viral replication were determined with some minor modifications, as previously described ([12], [62]). […] PBMCs (4 × 10^5) pre-activated with PHA-M for 3 days were washed with fresh media to remove excess PHA-M and subsequently infected with HIV-1NL4-3 or HIV-1AD8 or PIs-resistant HIV-1 strains as A3.01 infection. After infection, the infectious media were replaced with fresh media supplemented with international 10 units (IU)/mL of IL-2 and the indicated compounds. At 72 h after infection, the inhibitory effect of the compounds on viral replication was determined by measuring the p24 amount, an HIV capsid protein, using an HIV-1 p24 […] kit (PerkinElmer, Waltham, MA, USA). Cell viability was determined as described above. The inhibitory effects on provirus reversing in J1.1 and J-Lat 6.3 cells were determined as previously described ([12], [41], [63]) with some minor modifications. Briefly, 5 × 10^4 persistently HIV-1-infected J1.1 or J-Lat 6.3 cells were cultured in either the presence or absence of the compounds at a final concentration of 1.5 µM and treated with PMA (50 ng/mL for J1.1 cells, 1 µg/mL for J-Lat 6.3 cells). Two days after treatment, the levels of viral production were determined using p24 […] for J1.1 cells and flow cytometry analysis for GFP-expressing J-Lat 6.3 cells.

Setting [3] is: PBMCs, absence of HIV-1 infection, mean ± SD, read-out: CC50.

Where two headings read alike, the source gives them in different places.

As for `CC(C)[C@]12O[C@H]1[C@@H]1O[C@]13[C@]1(O[C@H]1C[C@H]1C4=C(CC[C@@]13C)C(=O)OC4)[C@@H]2O` [triptolide, reference compound], the “time of administration after infection at which effectiveness began to decrease / was lost” value (from here on “time of administration … to decrease / was lost”) in series [1] stood at 24 h. For the same compound, the CC50 – broadly, the concentration at which the toxic effect on the cells reaches its halfway point – at 3 days in series [2] (setting [3]) was determined as 0.19 µM.

On to `C[C@@H]1CCO[C@H]2Cn3cc(C(=O)NCc4ccc(F)cc4F)c(=O)c(O)c3C(=O)N12` [DTG, dolutegravir, reference compound], for which the “time of administration … to decrease / was lost” value in series [1] was 10 h. In series [2], this compound had a CC50 at 3 days of 18.3 ± 0.58 µM.

As to `O=C1Nc2ccc(Cl)cc2[C@@](C#CC2CC2)(C(F)(F)F)O1` [EFV, efavirenz, reference compound], the “time of administration … to decrease / was lost” value in series [1] is reported as 8 h. Further, in series [2] (setting [3]), the cytotoxic concentration (CC50) at 3 days worked out at 29.5 ± 3.62 µM.

For `Cc1[nH]c2ccc(-c3nnc(SCC(=O)N4CCCCC4)o3)cc2c1C` [Compound 9, 2-((5-(2,3-Dimethyl-1H-indol-5-yl)-1,3,4-oxadiazol-2-yl)thio)-1-(piperidin-1-yl)ethan-1-one], in series [1], the “time of administration … to decrease / was lost” value was determined as 24 h. In series [2], this compound returned a CC50 at 3 days of 44.1 ± 3.71 µM.

Take `Cc1[nH]c2ccc(-c3nnc(SCC(=O)N4CCCC4)o3)cc2c1C` [Compound 13, 2-((5-(2,3-Dimethyl-1H-indol-5-yl)-1,3,4-oxadiazol-2-yl)thio)-1-(pyrrolidin-1-yl)ethan-1-one]: the “time of administration … to decrease / was lost” value in series [1] turned out to be 24 h. The same compound displayed a CC50 at 3 days in series [2] of 45.2 ± 5.69 µM.
